The target of experiment [1] is Tyrosine-protein kinase ABL1 (Homo sapiens) (UniProt P00519). Kind of experiment: Inhibition of human ABL1 (27 to end residues) assessed as residual activity at 1 uM using EAIYAAPFAKKK as substrate incubated for 40 mins in presence of [gamma-33ATP] by scintillation counting based radiometry assay relative to control.
Experiment [2] deals with 5'-AMP-activated protein kinase catalytic subunit alpha-2 (Homo sapiens) (UniProt P54646). Kind of experiment: Inhibition of recombinant full length human AMPKalpha2 assessed as residual activity at 1 uM using AMARAASAAALAR as substrate incubated for 40 mins in presence of [gamma-33ATP] by scintillation counting based radiometry assay relative to control.
In experiment [3] the target is Aurora kinase B (Homo sapiens) (UniProt Q96GD4). Briefly: Inhibition of recombinant full length human Aurora B assessed as residual activity at 1 uM using AKRRRLSSLRA as substrate incubated for 40 mins in presence of [gamma-33ATP] by scintillation counting based radiometry assay relative to control.
In experiment [4] the target is Calcium/calmodulin-dependent protein kinase type II subunit beta (Homo sapiens) (UniProt Q13554). Kind of experiment: Inhibition of recombinant human CaMK2beta (1 to 315 residues) assessed as residual activity at 1 uM using […] incubated for 40 mins in presence of [gamma-33ATP] by scintillation counting based radiometry assay relative to control.

Experiment [5] deals with Cyclin-dependent kinase-like 4 (Homo sapiens) (UniProt Q5MAI5). Briefly: Inhibition of recombinant full length human CDKL4 assessed as residual activity at 1 uM in presence of [gamma-33ATP] by scintillation counting based radiometry assay relative to control.
For experiment [6], the target named is Transient receptor potential cation channel subfamily M member 7 (Homo sapiens) (UniProt Q96QT4). Kind of experiment: Inhibition of recombinant human CHAK1 (1180 to end residues) assessed as residual activity at 1 uM using myelin basic protein as substrate incubated for 40 mins in presence of [gamma-33ATP] by scintillation counting based radiometry assay relative to control.

Experiment [7] relates to Mast/stem cell growth factor receptor Kit (Homo sapiens), P10721 [D816V]. Kind of experiment: Inhibition of recombinant human C-Kit D816V mutant (544 to end residues) assessed as residual activity at 1 uM poly(Glu, Tyr) 4:1 as substrate incubated 40 mins in presence of [gamma-33ATP] by scintillation counting based radiometry assay relative to control.
Experiment [8] addresses Ephrin type-A receptor 1 (Homo sapiens) (UniProt P21709). Briefly: Inhibition of recombinant human EphA1 (568 to end residues) assessed as residual activity at 1 uM using KKKSPGEYVNIEFG as substrate at 40 mins in presence of [gamma-33ATP] by scintillation counting based radiometry assay relative to control.
Experiment [9] concerns the target Insulin receptor (Homo sapiens) (UniProt P06213). Kind of experiment: Inhibition of human IR (1005 to 1310 residues) assessed as residual activity at 1 uM using KKSRGDYMTMQIG as substrate after 40 mins by [gamma-33ATP] radiometric assay relative to control.
Experiment [10] has as its target Serine/threonine-protein kinase STK11 (Homo sapiens) (UniProt Q15831). Kind of experiment: Inhibition of recombinant human LKB1 assessed as residual activity at 1 uM using LSNLYHQGKFLQTFCGSPLYRRR as substrate after 40 mins in presence of [gamma-33ATP] by scintillation counting based radiometry assay relative to control.
The target of experiment [11] is Serine/threonine-protein kinase MAK (Homo sapiens) (UniProt P20794). Briefly: Inhibition of recombinant human MAK assessed as residual activity at 1 uM using RRRFRPASPLRGPPK as substrate after 120 mins in presence of [gamma-33ATP] by scintillation counting based radiometry assay relative to control.
Experiment [12] concerns Hepatocyte growth factor receptor (Homo sapiens), P08581 [D1228N]. Kind of experiment: Inhibition of recombinant human MET A1209G/V1290L/D1246N mutant (974 to end residues) assessed as residual activity at 1 uM using KKKGQEEEYVFIE as substrate incubated for 40 mins in presence of [gamma-33ATP by scintillation counting based radiometry assay relative to control.
Experiment [13] deals with Dual specificity mitogen-activated protein kinase kinase 6 (Homo sapiens) (UniProt P52564). Kind of experiment: Inhibition of recombinant human MKK6 (4 to end residues) assessed as residual activity at 1 uM using unactive SAPK2a as substrate measured after 40 mins in presence of [gamma33P]ATP by scintillation counting method.
Experiment [14] concerns the target Serine/threonine-protein kinase Nek2 (Homo sapiens) (UniProt P51955). Briefly: Inhibition of recombinant full-length human NEK2 assessed as residual activity at 1 uM using myelin basic protein as substrate measured after 40 mins in presence of [gamma33P]ATP by scintillation counting based radiometry assay relative to control.
The species named for a further experiment is Homo sapiens. Briefly: Inhibition of recombinant full length human PKBalpha S478G mutant assessed as residual activity at 1 uM using GRPRTSSFAEGKK as substrate measured after 40 mins in presence of [gamma33P]ATP by scintillation counting method relative to control.
Experiment [15] concerns the target Serine/threonine-protein kinase PRP4 homolog (Homo sapiens) (UniProt Q13523). Briefly: Inhibition of recombinant human PRP4 (663 to end residues) assessed as residual activity at 1 uM using casein as substrate measured after 40 mins in presence of [gamma33P]ATP by scintillation counting method relative to control.
Experiment [16] addresses Ribosomal protein S6 kinase alpha-1 (Homo sapiens) (UniProt Q15418). Kind of experiment: Inhibition of recombinant full length human Rsk1 assessed as residual activity at 1 uM using KKKNRTLSVA as substrate measured after 40 mins in presence of [gamma33P]ATP by scintillation counting method relative to control.
Experiment [17] has as its target Mitogen-activated protein kinase 11 (Homo sapiens) (UniProt Q15759). Briefly: Inhibition of recombinant human full length SAPK2b assessed as residual activity at 1 uM using myelin basic protein as substrate measured after 40 mins in presence of [gamma33P]ATP by scintillation counting method relative to control.
Experiment [18] deals with Angiopoietin-1 receptor (Homo sapiens), Q02763 [Q939H,Q940H]. Briefly: Inhibition of human Tie2 Q939H/Q940H mutant (771 to end residues) assessed as residual activity at 1 uM using poly(Glu, Tyr) 4:1 as substrate measured after 40 mins in presence of [gamma33P]ATP by scintillation counting method relative to control.
In experiment [19] the test system is Dual specificity protein kinase TTK (Homo sapiens), P33981 [S389A]. Briefly: Inhibition of recombinant full-length human TTK S389A mutant at 1 uM assessed as residual activity at 1 uM using MBP as substrate measured after 40 mins in presence of [gamma33P]ATP by scintillation counting method relative to control.
Experiment [20] concerns the target Wee1-like protein kinase (Homo sapiens) (UniProt P30291). Briefly: Inhibition of human Wee1 (214 to end residues) assessed as residual activity at 1 uM using LSNLYHQGKFLQTFCGSPLYRRR as substrate measured after 40 mins in presence of [gamma33P]ATP by scintillation counting method relative to control.

Sequence of Cyclin-dependent kinase-like 4 (Homo sapiens) (Q5MAI5 whole entry): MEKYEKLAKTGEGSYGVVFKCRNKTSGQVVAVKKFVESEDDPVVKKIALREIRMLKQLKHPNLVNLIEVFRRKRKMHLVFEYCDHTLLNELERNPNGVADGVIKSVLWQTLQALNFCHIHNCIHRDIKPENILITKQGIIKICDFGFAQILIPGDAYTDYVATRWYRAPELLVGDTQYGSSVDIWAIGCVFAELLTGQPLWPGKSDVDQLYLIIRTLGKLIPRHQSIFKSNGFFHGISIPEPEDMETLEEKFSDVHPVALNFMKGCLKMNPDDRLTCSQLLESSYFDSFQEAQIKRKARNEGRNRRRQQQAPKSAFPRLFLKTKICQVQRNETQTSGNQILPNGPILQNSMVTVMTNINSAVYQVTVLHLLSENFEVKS
Sequence of Serine/threonine-protein kinase STK11 (Homo sapiens) (Q15831 whole entry): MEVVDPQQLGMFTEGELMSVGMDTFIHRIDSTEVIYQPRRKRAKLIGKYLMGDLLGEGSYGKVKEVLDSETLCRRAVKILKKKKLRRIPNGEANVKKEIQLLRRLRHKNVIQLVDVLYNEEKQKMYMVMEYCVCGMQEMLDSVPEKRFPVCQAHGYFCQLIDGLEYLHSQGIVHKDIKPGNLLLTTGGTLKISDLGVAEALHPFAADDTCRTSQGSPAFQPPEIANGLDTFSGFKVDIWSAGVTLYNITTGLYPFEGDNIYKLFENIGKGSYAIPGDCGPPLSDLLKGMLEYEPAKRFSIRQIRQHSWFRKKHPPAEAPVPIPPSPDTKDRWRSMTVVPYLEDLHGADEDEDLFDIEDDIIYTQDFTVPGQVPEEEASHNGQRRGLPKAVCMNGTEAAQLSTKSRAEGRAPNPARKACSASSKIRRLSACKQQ
Sequence of Transient receptor potential cation channel subfamily M member 7 (Homo sapiens) (Q96QT4 whole entry): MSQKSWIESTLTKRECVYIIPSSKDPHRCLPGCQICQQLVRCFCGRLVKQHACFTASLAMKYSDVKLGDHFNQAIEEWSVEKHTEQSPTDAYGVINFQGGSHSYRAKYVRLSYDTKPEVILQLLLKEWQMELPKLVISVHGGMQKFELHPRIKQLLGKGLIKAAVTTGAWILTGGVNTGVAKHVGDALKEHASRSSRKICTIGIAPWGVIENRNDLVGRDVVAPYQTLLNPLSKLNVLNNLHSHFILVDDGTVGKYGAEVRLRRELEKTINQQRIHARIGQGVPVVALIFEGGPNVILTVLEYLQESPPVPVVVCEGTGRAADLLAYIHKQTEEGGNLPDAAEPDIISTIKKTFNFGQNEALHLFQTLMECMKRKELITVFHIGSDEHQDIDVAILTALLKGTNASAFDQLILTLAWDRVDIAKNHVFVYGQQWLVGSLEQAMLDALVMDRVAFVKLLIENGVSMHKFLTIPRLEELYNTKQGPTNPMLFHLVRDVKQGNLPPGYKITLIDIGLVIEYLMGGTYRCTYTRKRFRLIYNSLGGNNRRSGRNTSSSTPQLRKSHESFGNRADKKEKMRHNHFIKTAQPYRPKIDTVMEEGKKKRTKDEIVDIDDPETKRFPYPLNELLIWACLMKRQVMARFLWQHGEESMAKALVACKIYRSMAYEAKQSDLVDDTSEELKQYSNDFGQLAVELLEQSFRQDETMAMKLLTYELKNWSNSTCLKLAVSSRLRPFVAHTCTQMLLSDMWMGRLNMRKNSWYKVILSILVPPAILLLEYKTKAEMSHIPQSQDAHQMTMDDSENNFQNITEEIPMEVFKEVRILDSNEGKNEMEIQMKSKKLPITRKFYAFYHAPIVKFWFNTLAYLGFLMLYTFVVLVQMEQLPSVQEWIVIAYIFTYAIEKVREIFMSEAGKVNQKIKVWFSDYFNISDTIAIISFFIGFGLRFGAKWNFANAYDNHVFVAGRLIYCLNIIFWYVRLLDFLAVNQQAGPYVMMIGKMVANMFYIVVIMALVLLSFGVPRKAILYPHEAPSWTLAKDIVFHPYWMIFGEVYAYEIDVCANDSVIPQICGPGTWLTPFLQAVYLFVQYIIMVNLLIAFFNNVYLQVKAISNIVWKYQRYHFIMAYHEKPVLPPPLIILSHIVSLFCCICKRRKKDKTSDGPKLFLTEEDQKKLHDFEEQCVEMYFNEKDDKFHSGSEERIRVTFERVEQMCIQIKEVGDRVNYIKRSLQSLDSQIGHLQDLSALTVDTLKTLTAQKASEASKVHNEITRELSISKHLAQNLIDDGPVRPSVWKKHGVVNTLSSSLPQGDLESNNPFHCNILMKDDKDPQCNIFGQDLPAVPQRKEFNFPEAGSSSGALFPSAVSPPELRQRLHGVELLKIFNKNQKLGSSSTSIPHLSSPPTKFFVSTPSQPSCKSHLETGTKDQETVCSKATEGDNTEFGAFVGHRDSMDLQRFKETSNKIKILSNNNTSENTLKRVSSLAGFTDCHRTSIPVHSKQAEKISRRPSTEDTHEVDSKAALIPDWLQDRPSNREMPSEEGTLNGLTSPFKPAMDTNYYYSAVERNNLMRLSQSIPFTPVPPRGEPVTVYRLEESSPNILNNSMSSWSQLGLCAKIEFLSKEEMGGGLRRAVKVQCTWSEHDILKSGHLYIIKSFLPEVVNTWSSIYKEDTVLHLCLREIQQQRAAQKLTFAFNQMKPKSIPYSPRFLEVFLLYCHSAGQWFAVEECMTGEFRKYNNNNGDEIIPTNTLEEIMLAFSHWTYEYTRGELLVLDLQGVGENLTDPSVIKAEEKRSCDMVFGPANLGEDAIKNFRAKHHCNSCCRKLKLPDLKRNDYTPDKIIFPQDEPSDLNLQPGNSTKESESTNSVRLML
Sequence of Mitogen-activated protein kinase 11 (Homo sapiens) (Q15759 whole entry): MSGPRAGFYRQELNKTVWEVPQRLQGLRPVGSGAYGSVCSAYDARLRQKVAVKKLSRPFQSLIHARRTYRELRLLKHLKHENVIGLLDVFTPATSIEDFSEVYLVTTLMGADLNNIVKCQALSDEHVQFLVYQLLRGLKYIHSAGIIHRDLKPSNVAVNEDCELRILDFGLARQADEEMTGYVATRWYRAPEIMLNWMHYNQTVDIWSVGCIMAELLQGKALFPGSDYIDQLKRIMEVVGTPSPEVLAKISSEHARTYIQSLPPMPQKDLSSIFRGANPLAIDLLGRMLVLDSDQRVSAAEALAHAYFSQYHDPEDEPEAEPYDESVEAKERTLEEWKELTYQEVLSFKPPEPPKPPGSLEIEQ
Sequence of Serine/threonine-protein kinase MAK (Homo sapiens) (P20794 whole entry): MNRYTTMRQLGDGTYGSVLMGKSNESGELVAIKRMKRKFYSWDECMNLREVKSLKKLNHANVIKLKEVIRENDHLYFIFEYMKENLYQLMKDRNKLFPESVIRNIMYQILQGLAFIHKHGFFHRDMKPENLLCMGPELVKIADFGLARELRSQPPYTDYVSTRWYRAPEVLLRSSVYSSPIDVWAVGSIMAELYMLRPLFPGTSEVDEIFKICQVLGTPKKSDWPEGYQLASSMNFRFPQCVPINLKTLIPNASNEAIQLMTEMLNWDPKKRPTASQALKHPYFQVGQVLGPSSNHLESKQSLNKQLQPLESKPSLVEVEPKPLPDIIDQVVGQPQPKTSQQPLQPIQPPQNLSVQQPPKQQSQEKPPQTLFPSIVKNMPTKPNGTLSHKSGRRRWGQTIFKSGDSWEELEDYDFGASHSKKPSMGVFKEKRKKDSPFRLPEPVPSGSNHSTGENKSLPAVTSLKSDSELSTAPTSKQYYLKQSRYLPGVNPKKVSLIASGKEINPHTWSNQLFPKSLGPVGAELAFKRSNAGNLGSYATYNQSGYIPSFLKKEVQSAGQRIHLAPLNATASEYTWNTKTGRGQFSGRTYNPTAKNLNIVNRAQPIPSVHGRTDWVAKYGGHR
Sequence of 5'-AMP-activated protein kinase catalytic subunit alpha-2 (Homo sapiens) (P54646 whole entry, looked up): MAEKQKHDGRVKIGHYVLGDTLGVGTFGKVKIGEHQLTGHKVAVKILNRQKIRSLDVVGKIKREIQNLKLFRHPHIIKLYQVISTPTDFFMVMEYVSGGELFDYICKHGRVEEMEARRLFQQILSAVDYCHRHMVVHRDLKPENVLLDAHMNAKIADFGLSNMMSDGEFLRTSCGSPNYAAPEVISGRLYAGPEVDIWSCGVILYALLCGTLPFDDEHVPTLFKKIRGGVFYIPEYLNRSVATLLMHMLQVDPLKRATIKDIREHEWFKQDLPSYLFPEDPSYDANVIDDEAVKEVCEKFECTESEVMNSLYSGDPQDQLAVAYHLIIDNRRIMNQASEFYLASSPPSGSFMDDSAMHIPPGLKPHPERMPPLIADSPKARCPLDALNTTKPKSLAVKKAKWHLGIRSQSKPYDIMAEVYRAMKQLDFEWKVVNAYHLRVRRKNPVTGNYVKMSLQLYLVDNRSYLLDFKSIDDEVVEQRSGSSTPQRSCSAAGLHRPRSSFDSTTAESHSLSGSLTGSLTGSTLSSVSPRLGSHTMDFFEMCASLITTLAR
Sequence of Calcium/calmodulin-dependent protein kinase type II subunit beta (Homo sapiens) (Q13554 whole entry, the tested form may be a part): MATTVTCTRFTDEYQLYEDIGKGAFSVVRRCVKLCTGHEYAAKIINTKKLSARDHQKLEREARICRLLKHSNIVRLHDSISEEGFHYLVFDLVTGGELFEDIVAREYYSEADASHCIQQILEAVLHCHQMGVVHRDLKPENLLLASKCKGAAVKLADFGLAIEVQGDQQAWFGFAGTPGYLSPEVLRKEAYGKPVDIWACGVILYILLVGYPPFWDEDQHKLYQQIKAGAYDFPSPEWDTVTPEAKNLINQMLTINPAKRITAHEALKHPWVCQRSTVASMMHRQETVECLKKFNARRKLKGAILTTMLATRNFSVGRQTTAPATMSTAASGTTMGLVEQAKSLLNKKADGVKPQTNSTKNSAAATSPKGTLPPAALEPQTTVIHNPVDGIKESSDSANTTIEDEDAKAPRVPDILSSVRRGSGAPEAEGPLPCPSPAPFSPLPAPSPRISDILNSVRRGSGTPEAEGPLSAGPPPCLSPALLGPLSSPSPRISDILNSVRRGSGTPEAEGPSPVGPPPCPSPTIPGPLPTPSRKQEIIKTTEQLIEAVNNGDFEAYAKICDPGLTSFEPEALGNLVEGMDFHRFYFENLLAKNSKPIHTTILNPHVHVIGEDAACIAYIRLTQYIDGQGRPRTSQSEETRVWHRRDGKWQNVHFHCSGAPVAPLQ

On to `N=C1NC(=O)/C(=C\c2ccc(-c3cccc([N+](=O)[O-])c3)o2)S1`, for which the Activity was found to be 85% in [1]; 44% in [2]; 94% in [3]; 92% in experiment [4]; 65% in experiment [5]; 104% in experiment [6]. Moreover, the Activity in experiment [7] turned out to be 94%; in experiment [8], 100%; in experiment [9], 97%; in [10], 37%; in experiment [11], 17%; in experiment [12], 105%. The Activity was determined as 78% in experiment [13]; 95% in [14]; 97% in the experiment listed under Homo sapiens; 86% in [15]; 105% in experiment [16]; 100% in [17]. The Activity in [18] is 113%; in experiment [19], 98%; in experiment [20] it was 103%.

For the compound `C=CCOC(=O)c1cc(-c2ccc(/C=C3/NC(=S)NC3=O)o2)ccc1Cl`, the Activity in [1] was determined as 122%; in [2], 33%; in experiment [3], 110%; in experiment [4], 74%; in experiment [5], 58%; in experiment [6] it was 99%. For the same compound, the Activity in experiment [7] amounted to 97%; in [8], 104%; in experiment [9] it was 108%; in [10], 93%; in [11], 37%; in experiment [12], 114%. For the same compound, the Activity in experiment [13] was 121%; in experiment [14], 101%; in the experiment filed under Homo sapiens, 97%; in experiment [15], 92%; in experiment [16] it was 90%; in experiment [17] it was 100%. In addition, the Activity in experiment [18] worked out at 107%; in experiment [19], 92%; in experiment [20] it was 106%.

(Values after ChEMBL document CHEMBL4334438, “Discovery of novel glycogen synthase kinase-3α inhibitors: Structure-based virtual screening, preliminary SAR and biological evaluation for treatment of acute myeloid leukemia” (Eur J Med Chem, 2019).)
